tested on: Mast/stem cell growth factor receptor Kit [V654A]; assay: c-Kit(V654A) Assay
Description: c-Kit(V654A) (N-terminal GST-tagged, recombinant human c-Kit, amino acids 544-end containing the V654A mutation) is incubated with 8 mM MOPS pH 7.0, 0.2 mM EDTA, 250 μM GGMEDIYEFMGGKKK, 10 mM MgAcetate and [gamma-33P-ATP](specific activity approx. 500 cpm/pmol, concentration 200 μM). The reaction is initiated by the addition of the MgATP mix. After incubation for 40 minutes at room temperature, the reaction is stopped by the addition of 3% phosphoric acid solution. 10 μL of the reaction is then spotted onto a P30 filtermat and washed three times for 5 minutes in 75 mM phosphoric acid and once in methanol prior to drying and scintillation counting.

First: COCCOc1cc2[nH]nc(-c3cc(-c4ccc(C(=O)N5CC[C@@H]6CNC(=O)[C@@H]65)cc4)no3)c2cc1F (relative stereo) [US20260042753, Compound A89]
Second: COCCOc1cc2[nH]nc(-c3cc(-c4ccc(C(=O)N5C[C@@H]6CC(=O)N[C@@H]6C5)cc4)no3)c2cc1F (relative stereo) [US20260042753, Compound A203]
The IC50 of the first is 2.5-fold lower: 0.57 nM for the first, 1.4 nM for the second. The first is the more potent here.

Going from `COCCOc1cc2[nH]nc(-c3cc(-c4ccc(C(=O)N5CC[C@H]6COC[C@H]6C5)cc4)no3)c2cc1F` (relative stereo) [US20260042753, Compound A215] to `COCCOc1cc2[nH]nc(-c3cc(-c4ccc(C(=O)N5C[C@H]6CCOC[C@H]6C5)cc4)no3)c2cc1F` (relative stereo) [US20260042753, Compound A214], the IC50 falls from 0.76 nM to 0.44 nM (1.7-fold).

`COCCOc1cc2[nH]nc(-c3cc(-c4ccc([SH2+]([O-])C=N)cc4)no3)c2cc1F` [US20260042753, Compound A226] and `COCCOc1cc2[nH]nc(-c3cc(-c4ccc(N5CC[C@H]6[C@H]5CCN6C)cc4)no3)c2cc1F` (relative stereo) [US20260042753, Compound A126] are within 1.5-fold of each other in IC50: 2 nM for the first, 1.7 nM for the second.

Compound `COCCNC(=O)c1ccc(-c2cc(-c3n[nH]c4cc(C(=O)NCCOC)ccc34)on2)cc1` [US20260042753, Compound A23] has an IC50 of 10 nM.
